Nine compounds from US5891895A, “Hydroxypyridine derivatives their production and use” (Takeda Chemical Industries, Ltd., priority 1996, dated 1999) can be followed below.

Test [1] deals with rat aorta preparations. Put plainly: Vasorelaxant effect on rat aorta preparations: contractions induced by tetraethyl ammonium chloride (TEA) and barium chloride (BaCl2). The conditions noted are these: TEA (30-45 mM) and BaCl2 (0.3 mM), read-out: constriction inhibitory ratio. Type of test: cell-based, Male Wistar rats. The procedure: (§1) Vasorelaxant effect on rat aorta preparations
Effects on contractions induced by tetraethyl ammonium chloride (TEA) and barium chloride (BaCl2)
(§2) Method: Male Wistar rats (10 to 13 weeks old) were used. After exsanguination, the aorta was isolated. Aortic rings (5 mm long) were prepared and then suspended in a bath filled with oxygenated (95% O2 -5% CO2) Krebs solution (36° C.). One end of each ring preparation was fixed and the other end was connected to a tension transducer (Nihon Kohden), and tension of the ring preparation was measured. After an equilibration period of one hour, TEA (30-45 mM) and BaCl2 (0.3 mM) were added in the bath to produce vasoconstriction. After the contractions reached a steady state (after about 15 min.), each test compound was added and its relaxant effect was investigated.

Test [2] has as its system rat aorta preparations. Put plainly: Vasorelaxant effect on rat aorta preparations: constriction induced by potassium chloride (KCl). The class given is cell-based, Male Wistar rats. The conditions noted are these: KCl (80 mM), read-out: constriction inhibitory ratio. The procedure:
as §2, §1
Effect on constriction induced by potassium chloride (KCl)
Method: This experiment was performed using KCl (80 mM) instead of TEA and BaCl2 used in Experimental Example 1. Apart from this, the procedures were substantially the same as in Experimental Example 1.

The subject of test [3] is coronary blood flow. Kind of test: Coronary blood flow-increasing effect in anesthetized dogs (administration into the coronary artery). Type of test: in vivo. The following applies: 30 μg/dog into the coronary artery, anesthetized beagle dogs. The protocol: Coronary blood flow-increasing effect in anesthetized dogs (administration into the coronary artery)
Method: After beagle dogs (10 to 12 kg) were anesthetized with pentobarbital, the chest was opened under artificial respiration. A bypass fitted with an electromagnetic flowmeter (Nihon Kohden) was prepared between the left coronary artery and the left carotid artery, and the coronary blood flow was measured. Each test compound was dissolved in 50% polyethylene glycol in physiological saline, 50% DMF in physiological saline or DMF for administration (30 μg/dog) into the coronary artery through the bypass.
Results: The greatest percentage change (% of basal flow) and duration (expressed as half-time (T1/2) in which the effect is reduced to half) are shown in Table 14.

For test [4], the system named is spontaneously hypertensive rats (SHR). Put plainly: Antihypertensive effect in rats (SHR). Type of test: in vivo. The conditions noted are these: 0.3 mg/kg orally. The protocol:
(§3) Antihypertensive effect in rats
(§4) Method: 23 to 27-week-old spontaneously hypertensive rats (SHR) or normotensive rats (Wistar-Kyoto rats (WKY)) were anesthetized with pentobarbital (60 mg/kg, i.p.). A polyethylene catheter filled with physiological saline containing 20% heparin was inserted into the left femoral artery and left in place. The other end of the catheter was tunneled subcutaneously to the back and fixed there. After one night, the animals were used in the experiment in the fasting state. Blood pressure was recorded on an ink-writing recorder through the arterial catheter via a pressure transducer. Blood pressure was estimated from flood pressure waves recorded on the recorder. After the blood pressure was stabilized, the test compounds (vehicle (0.5% methylcellulose, […]) or Compound 16 (0.3 mg/kg)) were administered orally.
(§5) Results: The changes in blood pressure and heart rate after administration of the test compounds are given as % of pretreatment basal values (percentage changes) in FIGS. 1 and 2. All values are presented as means±standard error.

The test system of test [5] is normotensive rats (Wistar-Kyoto rats (WKY)). Put plainly: Antihypertensive effect in rats (WKY). The conditions noted are these: 0.3 mg/kg orally. Type of test: in vivo. The procedure: as §3, §4, §5

Each structure is given as a SMILES string.

For `CC(C)(C)O/N=C(/c1cccc(Br)c1)c1ncccc1O` [Compound 1, (Z)-2-(3-bromo-α-t-butoxyiminobenzyl)-3-hydroxypyridine], in test [1], the inhibition at 0.1 µM worked out at 57% and the inhibition at 0.3 µM was found to be 59%. Also, in test [2], the inhibition at 0.1 µM amounted to 0% and the inhibition at 0.3 µM is 0%. Further, in test [3], the “duration (T1/2), half-time in which the effect is reduced to half” value turned out to be 6.7 min and the greatest percentage change is 133 % of basal flow.
Regarding `CC(C)(C)O/N=C(/c1cccc(Br)c1)c1c(O)ccc[n+]1[O-]` [Compound 3, (Z)-2-(3-bromo-α-t-butoxyiminobenzyl)-3-hydroxypyridine 1-oxide], in test [1], the inhibition at 0.3 µM came out at 47% and the inhibition at 1 µM was determined as 97%. In test [2], the inhibition at 0.3 µM turned out to be 0% and the inhibition at 1 µM worked out at 2%. For the same compound, in test [3], the “duration (T1/2), half-time in which the effect is reduced to half” value is on record as 24.4 min and the greatest percentage change is listed as 155 % of basal flow.
For the compound `CC(C)(C)O/N=C(/c1ccc(Cl)cc1)c1c(O)ccc[n+]1[O-]` [Compound 7, (Z)-2-[α-(t-butoxyimino)-4-chlorobenzyl]-3-hydroxypyridine N-oxide], in test [1], the inhibition at 0.3 µM was 2% and the inhibition at 1 µM was 72%. For the same compound, the inhibition at 1 µM in test [2] was 0%. Besides, in test [3], the “duration (T1/2), half-time in which the effect is reduced to half” value is reported as 18.6 min and the greatest percentage change is given as 71 % of basal flow.
As to `CC(C)(C)O/N=C(/c1ccc(Cl)c(Cl)c1)c1c(O)ccc[n+]1[O-]` [Compound 11, (Z)-2-[α-(t-butoxyimino)-3,4-dichlorobenzyl]-3-hydroxypyridine N-oxide], in test [1], the inhibition at 0.3 µM was determined as 49% and the inhibition at 1 µM is 63%. Besides, the inhibition at 1 µM in test [2] amounted to 0%. Besides, in test [3], the “duration (T1/2), half-time in which the effect is reduced to half” value is on record as 30.5 min and the greatest percentage change is 66 % of basal flow.
As to `CC(C)(C)O/N=C(/c1cc(Cl)cc(Cl)c1)c1ncccc1O` [Compound 13, (Z)-2-[α-(t-butoxyimino)-3,5-dichlorobenzyl]-3-hydroxypyridine], in test [1], the inhibition at 0.3 µM was determined as 21% and the inhibition at 1 µM was 53%. In addition, the inhibition at 1 µM in test [2] came out at 4%.
Consider `CC(C)(C)O/N=C(/c1ccc(F)c(Br)c1)c1ncccc1O` [Compound 16, (Z)-2-(3-bromo-α-t-butoxyimino-4-fluorobenzyl)-3-hydroxypyridine], for which the inhibition at 0.1 µM in test [1] came out at 87%. Also, in test [2], the inhibition at 0.1 µM was 4%. In addition, in test [4], the “duration of antihypertensive effect” value is “long duration”, the “effect on heart rate” value is “little effect” and the “onset of antihypertensive effect after administration” value was 2 h. Moreover, the “greatest change in blood pressure (antihypertensive effect)” value in test [4] (% of pretreatment basal values) is 18%. In test [3], the “duration (T1/2), half-time in which the effect is reduced to half” value is recorded as 43.5 min and the greatest percentage change was 136 % of basal flow. Besides, in test [5], the “effect on blood pressure” value is “no effect” and the “effect on heart rate” value was “no effect”.
With `CC(C)(C)O/N=C(/c1cccc(C(F)(F)F)c1)c1ncccc1O` [Compound 21, (Z)-2-[α-(t-butoxyimino)-3-trifluoromethylbenzyl]-3-hydroxypyridine], in test [1], the inhibition at 0.3 µM amounted to 45% and the inhibition at 1 µM was 100%. In test [2], the inhibition at 0.3 µM was 1% and the inhibition at 1 µM worked out at 8%.
With `CC(C)(C)O/N=C(/c1cccc([N+](=O)[O-])c1)c1ncccc1O` [Compound 23, (Z)-2-[α-(t-butoxyimino)-3-nitrobenzyl]-3-hydroxypyridine], in test [1], the inhibition at 0.1 µM was 4%, the inhibition at 0.3 µM was determined as 56% and the inhibition at 1 µM was found to be 76%. In addition, in test [2], the inhibition at 0.3 µM was 0% and the inhibition at 1 µM was determined as 0%. In test [3], the “duration (T1/2), half-time in which the effect is reduced to half” value is 5.3 min and the greatest percentage change was 134 % of basal flow.
Turning to `CC(C)(C)N/N=C(\c1cccc(Br)c1)c1ncccc1O` [Compound 27, (E)-2-(3-bromo-α-t-butylhydrazinobenzyl)-3-hydroxypyridine], in test [1], the inhibition at 0.1 µM is 25% and the inhibition at 0.3 µM was 100%. Besides, in test [2], the inhibition at 0.1 µM amounted to 0% and the inhibition at 0.3 µM is 0%. In test [3], the “duration (T1/2), half-time in which the effect is reduced to half” value is 74.6 min and the greatest percentage change is given as 77 % of basal flow.
